Test results as given in patent US20120058504A1, “METHODS AND APPARATUS FOR DIELECT[…] AND MEASUREMENT OF SINGLE CELLS OR OTHER PARTICLES IN MI[…]” (SIMON FRASER UNIVERSITY, priority 2009, published 2012).

What was measured:
[1] = test system: MDR leukemia cancer cell (CEM VLB); experiment: DNR accumulation and MDR reversal in a single cell, DEP-based microfluidic chip (Chip IV), fluorescence measurement; details: DNR 35 μM, before CsA was delivered, 100-200 s, 35° C.
Protocol: Furthermore, DEP conditions were optimized to move a single multidrug resistant cancer cell 43 during fluorescence measurement using Chip TV (FIG. 20). Cell 43 was transferred out of fluorescent detection window 47 and back into detection window 47 by switching the voltage between electrodes AB and electrodes BC. When cell 43 was moved out of detection window 47, only the background (Fbackground) was measured. When cell 43 was moved back into detection window 47, the total fluorescence (Ftotal) was measured. By background correction, the absolute fluorescence of cell 43 (Fcell=Ftotal−Fbackground) was obtained. At the same time, a chemo-therapeutic drug, daunorubicin (DNR) was delivered to cell retention region 30 via solution reservoir 18B and microchannel 20B. The uptake of DNR inside a single MDR cancer cell 43 (CEM VLB) was monitored. The measurement results are depicted in FIG. 20b, showing many cycles of cell fluorescence (peaks) and troughs (background). […]
After DEP-based single cell chip 10 (Chip IV, FIG. 20) was used to move leukemia cancer cell 43 into and out of detection window 47 during fluorescence measurement for anticancer drug (for example, daunorubicin (DNR)) accumulation inside cell 43, chip 10 was further used for MDR reversal studies at an elevated temperature (35° C.). […]

CEM VLB cell = experiment: DNR accumulation in a single adhered cell, SASCA method (chip without DEP electrodes), fluorescence measurement; type: cell-based; details: chip translated, α-MEM medium
Protocol: (b) The fluorescent measurement of the adhered cell when the chip was translated into the measurement window (the peak provides the total fluorescence) and out of the measurement window (the baseline provides the background).
The SASCA method was performed for comparison with the DEP-based method. The SASCA method was performed in a chip without DEP electrodes. Cell 43 was moved into and out detection window 47 and at the same time DNR was delivered to cell retention region 30 (FIG. 21). In the SASCA method, cell movement was achieved by moving the chip with cell 43 which adheres to the bottom surface of cell retention region 30 in the chip.

COc1cccc2c1C(=O)c1c(O)c3c(c(O)c1C2=O)C[C@@](O)(C(C)=O)C[C@@H]3O[C@H]1C[C@H](N)[C@H](O)[C@H](C)O1 [DNR, daunorubicin]
DNR accumulation in cell (cell fluorescence, peaks minus troughs) [1]: very little DNR accumulation | DNR accumulation in cell (fluorescence of cell over measurement time) (CEM VLB cell): accumulated inside the cell
